Drawing on ChEMBL document CHEMBL3507680, “University of Dundee, Gates Library screen for HepG2 cell viability”, this text covers cytotoxicity for 70 compounds.

The structures appear in SMILES notation.

The series in a line: Human HepG2 cell viability assay in 384 well format. To be noted: HepG2 cells, read-out: Inhibition. The series is classed as toxicity, cell-based. The arrangement: dose 125 nL, time 70.5 hour; concentration not given beside the values.
On to `CCN(CC)C(=O)Cn1c(C)cc2nc(SC)n(CC(C)C)c(=O)c21`, for which the cytotoxicity at 70.5 h was -6.31%.

For `CCN(CCSc1ccccc1)C(=O)c1cn([C@H]2CC[C@@H](N)CC2)nn1`, the cytotoxicity at 70.5 h was -11.7%.

In the case of `CN(Cc1ccc(Cl)s1)C(=O)Cn1nc(-c2ccc(F)cc2)oc1=O`, the cytotoxicity at 70.5 h is -13.3%. The same measure for `Cc1cccc(C(=O)N2C[C@@H]3OCCN(CCN4CCCC4)[C@@H]3C2)n1`: -7.28%. `CN(Cc1ccsc1)C(=O)c1cccc(NS(C)(=O)=O)c1`: the cytotoxicity at 70.5 h is -7.22%. As for `CC(=O)N1CCC(C(=O)c2cnn(-c3ccccc3)c2N)C1` (stereo not given), the cytotoxicity at 70.5 h was -7.91%. `Cn1cnc(C(=O)N2CC3(CCN(S(=O)(=O)c4ccccc4)C3)C2)c1`: the cytotoxicity at 70.5 h was -7.62%. To `CC1(C)OCC(CNC(=O)c2cnn(-c3ccc(Cl)cc3)c2N)O1` (stereo not given) belongs 7.47%; to `CN1C(=O)C(c2cccnc2)CC12CCN(C(=O)c1cccn1C)CC2` (stereo not given), -10.3%.

With `Cc1cccc(NC(=O)N(CCC(F)(F)F)C[C@H](O)CO)c1`, the cytotoxicity at 70.5 h is -5.55%. `Cn1ccc(CNC(=O)N2CCCC3(C2)OCCO3)c1`: the cytotoxicity at 70.5 h turned out to be 0.239%. `Cc1ccc(NC2CCN(C(=O)c3sccc3C3CC3)CC2)nn1`: the cytotoxicity at 70.5 h was -8.46%. To `Cc1csc(CNC(=O)NC(C)c2ccc3c(c2)OCCO3)n1` (stereo not given) belongs 5.07%; to `NC(=O)N1CC[C@H](O)[C@@H]1Cc1ccccc1`, -8.95%. For the compound `CCCc1ccc(OC23CCCN(CC2)C3)c(OC)c1` (stereo not given), the cytotoxicity at 70.5 h is -9.71%.

Take `N#CCCN1CC(O)CN(C(=O)c2cccc(C(F)(F)F)c2)CC1=O` (stereo not given): the cytotoxicity at 70.5 h is -1.43%. To `CCn1cnnc1CCNS(=O)(=O)N1CCCC1c1ccco1` (stereo not given) belongs -9.13%; to `Cc1cnc(N2C[C@@H]3[C@@H](C2)OCC(=O)N3C)nc1`, -8.76%.

As to `COc1cccc(CC(=O)N2CCc3nc(C(N)=O)sc3CC2)c1`, the cytotoxicity at 70.5 h is -8.31%. The same measure for `Cc1ccc(N2CCO[C@H]3CN(Cc4cc(C)on4)CC[C@H]3C2=O)cn1`: -9.06%; for `CCc1noc(CS(=O)(=O)C(C)c2nc(C3CC3)no2)n1` (stereo not given): 13.9%. `Cc1cncc(C(=O)N2CCO[C@H]3[C@H](Oc4ccccn4)CC[C@@H]32)c1`: the cytotoxicity at 70.5 h was -12.4%. As to `CO[C@H]1CN(C(=O)c2ccc(-c3cc[nH]n3)cc2)CC[C@H]1N`, the cytotoxicity at 70.5 h was -8.35%. The same measure for `CN(C)C(=O)CN1CCN(Cc2coc(-c3cccc(F)c3)n2)CC1`: -11.2%; for `COCC(=O)N1CCC2(CCC2NS(=O)(=O)c2ccccc2)CC1` (stereo not given): 28.8%. To `Cc1cccc(CS(=O)(=O)NCc2nn(C)c3c2COCC3)c1` belongs -7.96%; to `O=S(=O)(c1cccs1)N1CCCCC1c1ccn[nH]1` (stereo not given), -2.26%. The same measure for `O=C(c1c(F)cccc1Br)N1CCCOCC1`: 3.06%; for `O=C(CCN1CCc2c(ncn2C2CC2)C1)NC1CCCC1`: -6.41%.

As for `O=C1CC(c2ccc(C(=O)O)cc2)c2ncn(-c3ccc(F)cc3)c2N1` (stereo not given), the cytotoxicity at 70.5 h was -4.89%. Turning to `CC[C@H](C)Nc1ncc(-c2ccn(C3CCN(C(C)=O)CC3)n2)cn1`, the cytotoxicity at 70.5 h was -5.16%. To `CN(C)CC(=O)N1CCCC2(CCN(c3ccccc3)C2=O)C1` (stereo not given) belongs -9.67%; to `COc1ccc(S(=O)(=O)N2CCC(OCc3ccccn3)C2)cc1Br` (stereo not given), -9.24%.

With `Cc1nc(C2(NCc3cccc(F)c3F)CCCCC2)no1`, the cytotoxicity at 70.5 h was -6.93%.

As for `CS(=O)(=O)N1CCN(Cc2cccs2)CC(C(N)=O)C1` (stereo not given), the cytotoxicity at 70.5 h is -2.16%.

For the compound `O=S1(=O)CCC(CNS(=O)(=O)N2CCc3ccccc3C2)C1` (stereo not given), the cytotoxicity at 70.5 h came to 1.82%. The same measure for `O=C(c1ccc[nH]1)N(Cc1ccc(O)cc1)CC1CC1`: 20.8%; for `Cc1cc(NC(=O)NCCc2ccsc2)n(C)n1`: -3.08%. Regarding `CN(Cc1ccco1)[C@@H]1CN(Cc2cccnc2)C[C@@H]2CCCO[C@@H]21`, the cytotoxicity at 70.5 h is -5%. `Cc1cnn(C2CCCN(C(=O)CCCNc3ncccn3)C2)c1` (stereo not given): the cytotoxicity at 70.5 h was -14.5%. Take `Cc1nc(C)c(C)c(NCCSc2ccccn2)n1`: the cytotoxicity at 70.5 h was -6.54%.

Turning to `Cc1ccc(S(=O)(=O)NCCc2cccnc2)cc1C`, the cytotoxicity at 70.5 h is -3.85%. `CCN1CC(C(=O)NC(C)(C)CC)CC1=O` (stereo not given): the cytotoxicity at 70.5 h was -3.27%. To `Cc1cc(CN2C[C@H]3CC[C@@H]2CN(Cc2c(C)noc2C)C3)ccc1F` belongs -5.96%.

For the compound `CN(C)CCNc1ccc(-c2nc(-c3ccccc3F)no2)cn1`, the cytotoxicity at 70.5 h turned out to be 0.837%. To `O=S(=O)(NCc1ccccc1)N1CCN(c2ncccn2)CC1` belongs -18.4%; to `O=C(c1ccncc1)N1CCOC2(COCCN(c3cncnc3)C2)C1` (stereo not given), -11.1%.

Regarding `O=C(CC1COCCN1)N1CCCN(C2Cc3ccccc3C2)CC1` (stereo not given), the cytotoxicity at 70.5 h was -3.92%. Turning to `Cc1cc(NC(=O)CN2CCN(c3nccs3)C(C)C2)on1` (stereo not given), the cytotoxicity at 70.5 h is -6.15%. The same measure for `Cc1cc2ccccc2n1CCC(=O)NCCN(C)S(C)(=O)=O`: -13.9%; for `Cc1nnc2n1CCN(C(=O)c1cnc3c(cnn3C(C)C)c1)C2`: 25.5%. `CCN(CC)C(=O)CSc1nc2c(cnn2CCO)c(=O)[nH]1`: the cytotoxicity at 70.5 h was 17.2%. Take `O=C(c1cccs1)N1CCCn2c(nc(CN3CCCC3)cc2=O)C1`: the cytotoxicity at 70.5 h is -0.229%. Regarding `CS(=O)(=O)CCCSc1n[nH]c(-c2ccc3c(c2)CCC3)n1`, the cytotoxicity at 70.5 h is -1.26%. On to `COc1cccc(C2C3=C(COC3=O)Nc3[nH]nc(C)c32)c1O` (stereo not given), for which the cytotoxicity at 70.5 h was -3.51%. To `COCCN1CC(C(=O)NCc2ccc(C)s2)CC1=O` (stereo not given) belongs -1.18%; to `Cc1noc(C)c1CNC(=O)Nc1ccc(N2CCOC2=O)cc1`, -17.5%; to `O=C(CCNC(=O)C1CCCC1)NCc1ccccc1Cn1cncn1`, -7.76%. As for `CN1CCCC1c1ccnc(-c2ccccn2)n1` (stereo not given), the cytotoxicity at 70.5 h is -1.8%.

Take `Cc1cc(C)c2[nH]c(CN3CCCC(N4CCOCC4)C3)cc(=O)c2c1` (stereo not given): the cytotoxicity at 70.5 h is -5.41%. In the case of `N#Cc1ccc(CC(=O)N2CCC(Nc3cccnn3)CC2)cc1`, the cytotoxicity at 70.5 h was -5.35%. Take `CNc1cc2c(nn1)CCN(C(=O)C1CCCc3ccccc31)C2` (stereo not given): the cytotoxicity at 70.5 h was -19%. To `Cn1c(C(F)(F)F)nn(CCNC(=O)c2ccccn2)c1=O` belongs -7.74%; to `CCN(C)S(=O)(=O)NCC(O)c1cc2ccccc2s1` (stereo not given), -0.185%. The same measure for `Cc1nc2ccccc2nc1CN1CCCCC1Cn1cncn1` (stereo not given): -8.21%; for `CS(=O)(=O)NC[C@]12COC[C@H]1CN(C(=O)CCc1ccccc1)C2`: -2.39%; for `Cc1c(CN2CCCC(C(=O)c3ccccc3)C2)cc(C#N)n1C` (stereo not given): -4.58%.

Regarding `F[C@@H]1CN(CC2CC2)C[C@@H]1OCc1nc2ccccc2o1`, the cytotoxicity at 70.5 h is -1.13%. For the compound `c1ccc(C2CN(CCc3ccncc3)CCO2)cc1` (stereo not given), the cytotoxicity at 70.5 h is -9.13%. Take `CC(C)C(=O)N1CCC(NC2CCSCC2)C1` (stereo not given): the cytotoxicity at 70.5 h was -4.83%.
